Assay results published in ChEMBL document CHEMBL4706755, “Novel Small Molecule RNA m6A Demethylase AlkBH5 Inhibitors for Treating Cancer” (ACS Med Chem Lett, 2021).
pIC50: −log10 of the molar value.

Biological target: RNA demethylase ALKBH5 (Homo sapiens, UniProt Q6P6C2)
Assay: Inhibition of ALKBH5 demethylase activity (unknown origin) assessed as increase in methylated 6A-RNA level incubated for 2 hrs by colorimetric analysis

RNA demethylase ALKBH5, sequence (Q6P6C2 whole entry): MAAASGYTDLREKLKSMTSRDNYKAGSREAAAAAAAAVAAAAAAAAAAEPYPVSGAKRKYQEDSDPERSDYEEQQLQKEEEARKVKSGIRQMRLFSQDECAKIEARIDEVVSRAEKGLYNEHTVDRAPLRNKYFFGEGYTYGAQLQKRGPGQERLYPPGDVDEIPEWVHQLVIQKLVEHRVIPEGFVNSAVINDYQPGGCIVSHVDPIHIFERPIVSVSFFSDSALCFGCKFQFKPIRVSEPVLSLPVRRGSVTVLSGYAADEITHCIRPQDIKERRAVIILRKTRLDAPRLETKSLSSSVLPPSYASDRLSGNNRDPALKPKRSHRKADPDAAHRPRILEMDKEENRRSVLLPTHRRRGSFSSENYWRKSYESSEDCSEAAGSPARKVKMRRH

Structure (SMILES): O=C(O)CSC(O)C(=O)c1ccccc1 (stereo unspecified)
- pIC50: 6.08
